# Measurements as given in patent US10517889B2, “Modulators of SMAD7 expression” (Ionis Pharmaceuticals, Inc., priority 2017, dated 2019).
# Strand notation (5' to 3'): a small letter for the sugar, then the base; units joined by * are phosphorothioate-linked, units joined directly phosphodiester-linked; [ ] holds rarer units or linkages, { } end groups; capitals alone tell only the bases. k = constrained ethyl (cEt); [5mC] = 5-methylcytosine; d = 2'-deoxy (DNA)
# Test system: human SMAD7 mRNA
# Experiment: Antisense inhibition of human SMAD7 mRNA expression in Hep3B cells by 3-10-3 cEt gapmers, 10,000 nM, electroporation (Example 2)
# Type: cell-based
# Details: Hep3B cells, electroporation with 10,000 nM antisense oligonucleotide, approximately 24 hours, RTS5062, percent inhibition of SMAD7 mRNA relative to untreated control cells
# How it was run: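 Hep3B, 20,000 cells/well; electroporation, 10,000 nM ASO; ~24 h. Readout: SMAD7 mRNA by qRT-PCR (RTS5062), RIBOGREEN-normalised; % inhibition vs untreated.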
row,Substance,% Inhibition
1,799682 (antisense kG*kG*kT*d[5mC]*d[5mC]*dA*dG*dG*dA*d[5mC]*dT*dG*dG*kT*k[5mC]*kT) [compound 799682],55%
2,799683 (antisense k[5mC]*kT*kG*d[5mC]*dA*dG*dA*dA*dG*dA*dG*dG*d[5mC]*kG*kG*kG) [compound 799683],32%
3,799684 (antisense kA*kA*kT*dG*d[5mC]*dT*dG*dT*d[5mC]*dA*d[5mC]*d[5mC]*d[5mC]*kT*kG*kT) [compound 799684],52%
4,799685 (antisense kG*kA*kT*dT*dT*dT*dA*dA*dA*dT*dG*d[5mC]*dT*kG*kT*k[5mC]) [compound 799685],25%
5,799687 (antisense kG*kG*k[5mC]*dA*dG*d[5mC]*dA*dG*dA*d[5mC]*d[5mC]*dA*dT*k[5mC]*kT*kT) [compound 799687],35%
6,799688 (antisense k[5mC]*kA*k[5mC]*d[5mC]*dA*d[5mC]*d[5mC]*d[5mC]*dA*dA*dA*dG*d[5mC]*k[5mC]*kT*kG) [compound 799688],50%
7,799690 (antisense kA*kG*k[5mC]*dT*dA*d[5mC]*dA*dG*dT*d[5mC]*dA*dG*dG*k[5mC]*kT*kT) [compound 799690],51%
8,799691 (antisense kT*k[5mC]*k[5mC]*d[5mC]*dA*dT*dA*dG*dG*dT*dG*dT*dA*k[5mC]*kA*kA) [compound 799691],49%
9,799702 (antisense k[5mC]*kA*kT*d[5mC]*dA*d[5mC]*d[5mC]*dA*d[5mC]*dT*d[5mC]*dT*dA*k[5mC]*kA*kG) [compound 799702],43%
10,799703 (antisense k[5mC]*k[5mC]*kA*dA*dT*dG*dG*d[5mC]*dA*dT*dT*dG*dA*kA*kT*kA) [compound 799703],45%
11,799704 (antisense kA*k[5mC]*k[5mC]*dA*dA*dT*dG*dG*d[5mC]*dA*dT*dT*dG*kA*kA*kT) [compound 799704],12%
12,799705 (antisense kA*kA*k[5mC]*dT*dT*dA*dA*dA*dA*dT*dG*dT*dG*k[5mC]*k[5mC]*kA) [compound 799705],26%
13,799706 (antisense k[5mC]*kT*kT*dG*dT*dG*dG*dT*dA*dA*dA*dA*dT*kA*k[5mC]*kA) [compound 799706],47%
14,799707 (antisense kA*kA*kA*d[5mC]*dT*dT*dG*dT*dG*dG*dT*dA*dA*kA*kA*kT) [compound 799707],38%
15,799710 (antisense kG*kT*k[5mC]*dA*dA*dA*d[5mC]*dT*dT*dG*dT*dG*dG*kT*kA*kA) [compound 799710],48%
16,799723 (antisense kA*kG*k[5mC]*d[5mC]*dA*dA*d[5mC]*d[5mC]*d[5mC]*dT*dG*dG*d[5mC]*kA*k[5mC]*k[5mC]) [compound 799723],0%
17,799724 (antisense kA*kA*k[5mC]*dT*dT*dG*dG*dG*d[5mC]*dA*dA*dG*dG*kA*k[5mC]*kA) [compound 799724],24%
18,799725 (antisense kG*kG*k[5mC]*d[5mC]*dA*d[5mC]*dT*dG*d[5mC]*dA*dG*d[5mC]*d[5mC]*k[5mC]*kT*kA) [compound 799725],0%
19,799726 (antisense kG*kT*kA*dT*d[5mC]*d[5mC]*dT*dT*dT*d[5mC]*dA*d[5mC]*dG*kA*kG*kG) [compound 799726],49%
20,799727 (antisense kT*kG*kA*d[5mC]*dA*dG*dT*dA*dG*dG*d[5mC]*dA*dG*kG*k[5mC]*kA) [compound 799727],22%
21,799728 (antisense k[5mC]*kG*kG*dA*dG*dA*dG*dG*dA*dA*dG*d[5mC]*d[5mC]*kT*k[5mC]*kT) [compound 799728],37%
22,799729 (antisense kT*kA*kT*d[5mC]*dT*dT*d[5mC]*d[5mC]*d[5mC]*dG*d[5mC]*dT*dG*kA*kA*kA) [compound 799729],52%
23,799730 (antisense kT*kA*kA*dA*dT*dT*dG*dA*dG*dA*dA*d[5mC]*dT*kG*kT*kG) [compound 799730],60%

# Same assay, conditions: Hep3B cells, electroporation, 10,000 nM antisense oligonucleotide, approximately 24 hours, RTS5062, relative to untreated control cells
row,Substance,% inhibition of SMAD7 mRNA expression
1,799672 (antisense kA*k[5mC]*kA*dG*dG*dA*dT*dG*dG*dA*dG*d[5mC]*dA*kA*kT*kG) [compound 799672],41%
2,799675 (antisense kT*k[5mC]*k[5mC]*d[5mC]*dA*dG*dT*dT*d[5mC]*dA*dT*dG*dA*kT*k[5mC]*kA) [compound 799675],0%
3,799676 (antisense kG*kA*kA*dA*d[5mC]*d[5mC]*dA*dT*dG*dA*dG*d[5mC]*dT*kG*kT*kT) [compound 799676],64%
4,799677 (antisense kG*k[5mC]*kT*d[5mC]*dA*dT*dG*dA*dG*d[5mC]*dA*dT*dT*kT*kG*kG) [compound 799677],68%
5,799678 (antisense k[5mC]*kA*k[5mC]*dA*dA*dG*d[5mC]*dA*d[5mC]*d[5mC]*dT*dG*dT*k[5mC]*k[5mC]*kA) [compound 799678],0%
6,799679 (antisense k[5mC]*kT*kG*d[5mC]*dA*dG*dG*dG*dT*dA*d[5mC]*dT*dA*kA*kG*kG) [compound 799679],0%
7,799680 (antisense kG*kA*kG*dT*dT*d[5mC]*dT*dA*dG*dG*d[5mC]*d[5mC]*dG*kT*k[5mC]*kA) [compound 799680],33%
8,799681 (antisense kA*k[5mC]*kT*d[5mC]*dA*dT*d[5mC]*d[5mC]*dT*dG*dT*dT*dG*kG*k[5mC]*kA) [compound 799681],53%
9,799692 (antisense kA*k[5mC]*kA*d[5mC]*dA*dG*dT*dA*dA*d[5mC]*dA*dA*d[5mC]*kA*kA*kT) [compound 799692],0%
10,799693 (antisense kT*kT*kA*dT*dG*dA*d[5mC]*dA*d[5mC]*dA*dG*dT*dA*kA*k[5mC]*kA) [compound 799693],17%
11,799694 (antisense kA*kA*kG*dG*dA*dA*dT*dT*dA*dT*dG*dA*d[5mC]*kA*k[5mC]*kA) [compound 799694],7%
12,799695 (antisense k[5mC]*k[5mC]*kA*dG*dG*dA*dA*d[5mC]*d[5mC]*dA*dG*d[5mC]*dA*k[5mC]*kT*kT) [compound 799695],6%
13,799696 (antisense kA*kA*kG*dT*dT*dA*dT*d[5mC]*dT*dG*dG*dG*dA*kA*kG*k[5mC]) [compound 799696],43%
14,799697 (antisense kA*kA*kT*dA*dG*dT*dT*dT*dT*d[5mC]*dT*d[5mC]*dT*k[5mC]*kA*kA) [compound 799697],59%
15,799698 (antisense kT*kA*kA*dT*dA*dG*dT*dT*dT*dT*d[5mC]*dT*d[5mC]*kT*k[5mC]*kA) [compound 799698],33%
16,799699 (antisense k[5mC]*kA*kA*dA*dA*d[5mC]*dA*dG*dT*dG*dG*dA*d[5mC]*k[5mC]*kA*kT) [compound 799699],57%
17,799700 (antisense k[5mC]*kA*kT*dG*dA*d[5mC]*dA*dG*d[5mC]*dA*dA*dA*dG*k[5mC]*kA*kA) [compound 799700],49%
18,799701 (antisense k[5mC]*kT*kA*d[5mC]*dA*dG*dT*dT*d[5mC]*d[5mC]*dA*dG*dA*kA*k[5mC]*kA) [compound 799701],46%
19,799713 (antisense k[5mC]*kA*k[5mC]*dA*dA*dT*d[5mC]*dA*d[5mC]*dT*dG*dT*dT*k[5mC]*k[5mC]*kT) [compound 799713],0%
20,799714 (antisense k[5mC]*kA*k[5mC]*d[5mC]*dA*dA*dA*dA*d[5mC]*dA*dA*dG*dT*kG*kT*k[5mC]) [compound 799714],33%
21,799715 (antisense k[5mC]*k[5mC]*kT*d[5mC]*dA*dG*dG*dG*d[5mC]*dT*dG*d[5mC]*d[5mC]*kA*k[5mC]*k[5mC]) [compound 799715],32%
22,799716 (antisense kG*kG*k[5mC]*dT*dA*d[5mC]*d[5mC]*dA*dG*d[5mC]*d[5mC]*dT*dT*kG*k[5mC]*kT) [compound 799716],32%
23,799717 (antisense kG*k[5mC]*kA*dG*dG*d[5mC]*dT*dA*d[5mC]*d[5mC]*dA*dG*d[5mC]*k[5mC]*kT*kT) [compound 799717],0%
24,799719 (antisense k[5mC]*k[5mC]*kT*dT*dT*d[5mC]*dT*dA*d[5mC]*dT*dA*dG*dA*kA*kA*kA) [compound 799719],19%
25,799720 (antisense kA*k[5mC]*kA*d[5mC]*dA*d[5mC]*dA*dG*d[5mC]*dA*dG*dA*dA*kG*kG*k[5mC]) [compound 799720],40%
26,799721 (antisense kG*kT*kA*dA*d[5mC]*dA*d[5mC]*dA*d[5mC]*dA*dG*d[5mC]*dA*kG*kA*kA) [compound 799721],42%
27,799731 (antisense k[5mC]*kT*kT*dT*d[5mC]*dT*dT*dG*dG*dT*dG*dT*dG*kT*kT*kA) [compound 799731],37%
28,799732 (antisense kG*kG*kG*dA*dT*d[5mC]*dA*dG*dG*dT*dG*dA*dG*kT*kG*kT) [compound 799732],48%
29,799733 (antisense kG*kT*kT*dT*dA*dG*dG*dT*dA*dG*dA*dG*dT*kG*kG*k[5mC]) [compound 799733],27%
30,799735 (antisense kT*k[5mC]*k[5mC]*dA*d[5mC]*dG*dG*dG*dA*dG*dT*dG*dG*kA*kA*kG) [compound 799735],0%
